Measured values reported in publication PMC11859825, “Discovery of Sphingosine Kinase Inhibition by Modified Quinoline-5,8-Diones” (Pharmaceuticals, 2025).
Where “and” joins values, the source holds several entries; their conditions need not be identical. Equal values may be shown once. Read-outs that look alike come from different tables or passages of the source.

What was measured:
[1] = test system: A498 kidney adenocarcinoma cells; set-up: method as in PMID 22970244; conditions: read-out: EC50, reduced proliferation; cited from earlier work
SphK2 = conditions: cited from earlier work
SphK1 = conditions: cited from earlier work
recombinant human SphK2 = molecular target: T1, recombinant human SphK2 (Homo sapiens, UniProt Q9NRA0); experiment: Fluorometric NBD-sphingosine sphingosine kinase inhibition assay, SphK2; conditions: for IC50: IC50 against SphK2
T1 sequence (Q9NRA0 1-654): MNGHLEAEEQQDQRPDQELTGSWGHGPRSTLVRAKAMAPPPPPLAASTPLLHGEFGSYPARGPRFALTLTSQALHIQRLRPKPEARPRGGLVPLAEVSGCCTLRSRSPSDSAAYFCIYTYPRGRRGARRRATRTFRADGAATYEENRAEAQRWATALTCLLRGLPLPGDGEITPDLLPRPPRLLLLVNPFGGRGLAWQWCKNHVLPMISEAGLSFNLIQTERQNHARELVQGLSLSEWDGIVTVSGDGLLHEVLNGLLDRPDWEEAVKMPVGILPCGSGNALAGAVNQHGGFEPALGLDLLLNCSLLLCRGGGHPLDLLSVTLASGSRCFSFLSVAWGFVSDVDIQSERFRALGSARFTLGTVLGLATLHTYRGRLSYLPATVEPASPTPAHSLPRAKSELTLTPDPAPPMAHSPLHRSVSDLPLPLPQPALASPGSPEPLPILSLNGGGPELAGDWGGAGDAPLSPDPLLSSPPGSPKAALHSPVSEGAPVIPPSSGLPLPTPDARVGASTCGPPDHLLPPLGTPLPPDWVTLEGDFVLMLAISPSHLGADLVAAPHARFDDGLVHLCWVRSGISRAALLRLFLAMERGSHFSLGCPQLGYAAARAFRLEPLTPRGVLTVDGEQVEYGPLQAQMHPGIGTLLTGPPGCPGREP
Description: (§1) The fluorescence-based assay involved incubating the quinoline-5,8-diones with SphK isoforms individually (recombinant SphK1 and SphK2 in duplicate) [41].
(§2) The relevant enzymes and inhibitors were incubated in total reaction volumes of 100 µL with 10 µM NBD-sphingosine, 500 µM 4-deoxypyridoxine and 1 mM Mg-ATP in assay buffer (100 mM Tris/HCl (pH 7.4), 150 mM NaCl, 2 mM Na3VO4 and 10 mM NaF) for 30 min at 37 °C. A reaction mixture containing no test SphK inhibitor served as the positive control, while a reaction mixture containing no Mg-ATP served as the negative control. Post-incubation, 100 µL of potassium phosphate buffer, pH 8.5, was added to each Eppendorf, followed by 500 µL of 2:1 Chloroform/Methanol. After brief mixing with a vortex, phases were separated by centrifugation at 2000 rpm for 5 min. […] Data are expressed as mean SD from a minimum of 2 independent experiments. […] From this, the IC50 values of several test inhibitors were calculated.

NCI-60 cell line panel = experiment: NCI60 one-dose anticancer screen; assay type: cell-based, human; conditions: 10 μM, mean growth percentage across 60 cell lines
Description: A preliminary anticancer study was conducted through the National Cancer Institute 60 human tumour cell line panel (NCI60) on a representative selection of the aryl-ether quinoline-5,8-diones (Table 2). […].
One-dose study: Tested compounds were initially solubilised in DMSO, diluted into RPMI 1640 and 5% fetal bovine serum/L-glutamine and added to 96-well plates containing cell lines previously cultured for 24 h. After 48 h of incubation, the media were removed, and the cells were fixed and stained with sulforhodamine B to determine overall percent growth/total protein content. Unbound dye was removed with five washes of 1% acetic acid, and the plates were allowed to air dry. The dye was then resolubilised in Tris buffer, and the colourimetric absorbance was measured (515 nm). Growth inhibition was measured relative to the response generated from proliferating cells cultured under identical conditions for 48 h. Data from one-dose experiments pertain to the percentage growth at 10 μM [60, 61].

recombinant human SphK1 = recombinant human SphK1 (Homo sapiens, UniProt Q9NYA1); experiment: Fluorometric NBD-sphingosine sphingosine kinase inhibition assay, SphK1; conditions: for IC50: IC50 against SphK1; for Selectivity between SphK1 and SphK2 (in words): single-concentration screen, SphK1 versus SphK2
Description: as §1, §2

[2] = test system: head and neck squamous cell carcinoma (SCC) cells; set-up: method as in PMID 29109864; conditions: cited from earlier work
60 cell lines (NCI) = test system: 60 cell lines (NCI); set-up: method as in NCI cancer-screening platform (NSC796101); conditions: ref NCI cancer-screening platform (NSC796101); read-out: Mean GI50 across 60 cell lines; cited from earlier work
[3] = read-out: SphK2 inhibition, 10 μM compound
[4] = read-out: Spk2 % (inhibition), Average, 10 μM, Tables S3-S5
[5] = read-out: Spk2 % (inhibition), replicate A, 10 μM, Tables S3-S5
[6] = read-out: Spk2 % (inhibition), replicate B, 10 μM, Tables S3-S5
[7] = read-out: SphK1 inhibition, 10 μM compound
[8] = read-out: Spk1 % (inhibition), Average, 10 μM, Tables S3-S5
[9] = read-out: Spk1 % (inhibition), replicate A, 10 μM, Tables S3-S5
[10] = read-out: Spk1 % (inhibition), replicate B, 10 μM, Tables S3-S5

Sequence of recombinant human SphK1 (Q9NYA1 whole entry): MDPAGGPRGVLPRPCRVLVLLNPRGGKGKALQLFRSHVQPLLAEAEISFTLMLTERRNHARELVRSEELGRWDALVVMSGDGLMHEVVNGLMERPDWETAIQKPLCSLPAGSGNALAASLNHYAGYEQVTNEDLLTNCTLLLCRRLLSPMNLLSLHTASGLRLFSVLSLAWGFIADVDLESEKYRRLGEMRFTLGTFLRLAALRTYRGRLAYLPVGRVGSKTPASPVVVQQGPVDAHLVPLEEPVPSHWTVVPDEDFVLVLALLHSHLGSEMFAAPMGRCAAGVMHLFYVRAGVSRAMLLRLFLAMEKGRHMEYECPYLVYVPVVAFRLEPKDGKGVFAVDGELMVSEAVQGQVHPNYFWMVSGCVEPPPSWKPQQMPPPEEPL

Row | SMILES | inhibition at 10 µM (recombinant human SphK2; [3]) [%] | inhibition at 10 µM (recombinant human SphK2; [4]) [%] | inhibition at 10 µM (recombinant human SphK2; [5]) [%] | inhibition at 10 µM (recombinant human SphK2; [6]) [%] | inhibition at 10 µM (recombinant human SphK1; [7]) [%] | inhibition at 10 µM (recombinant human SphK1; [8]) [%] | inhibition at 10 µM (recombinant human SphK1; [9]) [%] | inhibition at 10 µM (recombinant human SphK1; [10]) [%] | also measured
1 | CC(=O)N(C1=C(Cl)C(=O)c2ccccc2C1=O)C1CCCCC1 [CB5468139] | – | – | – | – | – | – | – | – | EC50 [1]: 10 to 15 µM; Concentration up to which SphK2 activity is not affected (SphK2): > 100 µM; Ki (SphK1): 0.3 µM
2 | COc1ccc(OC2=CC(=O)c3ccc(C)nc3C2=O)cc1 [Compound 4] | 37 | 36.8 | 37.5 | 36.3 | 69 | 69.2 | 58.5 | 77.5 | IC50 (recombinant human SphK2): 8.47 µM and 8 µM; Mean Growth (%) (NCI-60 cell line panel): 84.4%; IC50 (recombinant human SphK1): 30.2 µM and 30 µM; Selectivity between SphK1 and SphK2 (in words) (recombinant human SphK1): a level of selectivity for SphK1
3 | COc1cccc(OC2=CC(=O)c3ccc(C)nc3C2=O)c1 [Compound 5, 7-(3-Methoxyphenoxy)-2-methylquinoline-5,8-dione] | – | 49.7 | 50.1 | 49.3 | – | 39.9 | 37.8 | 41.5 | Mean Growth (%) (NCI-60 cell line panel): 88.5%
4 | Cc1ccc2c(n1)C(=O)C(Oc1ccc(F)cc1)=CC2=O [Compound 6, 7-(4-Fluorophenoxy)-2-methylquinoline-5,8-dione] | ≥ 56 | 59.6 | 58.6 | 60.4 | ≥ 54 | 54.2 | 53.4 | 54.8 | Mean Growth (%) (NCI-60 cell line panel): 88.2%
5 | Cc1ccc2c(n1)C(=O)C(Oc1ccc(C#N)cc1)=CC2=O [Compound 7, 2-Methyl-7-(4-(cyano)phenoxy)quinoline-5,8-dione] | ≥ 56 | 55.6 | 53.6 | 57.2 | ≥ 54 | 54.7 | 54.1 | 55.2 | Mean Growth (%) (NCI-60 cell line panel): 97.3%
6 | Cc1ccc2c(n1)C(=O)C(Oc1ccc(Cl)c(Cl)c1)=CC2=O [Compound 8, 7-(3,4-Dichlorophenoxy)-2-methylquinoline-5,8-dione] | – | 37.8 | 36 | 39.2 | 26 | 25.3 | 17 | 32.1 | –
7 | Cc1ccc2c(n1)C(=O)C(Oc1ccc(F)c(F)c1)=CC2=O [Compound 9, 7-(3,4-Difluorophenoxy)-2-methylquinoline-5,8-dione] | – | 25.2 | 27.4 | 23.5 | 20 | 20.3 | 14.4 | 25.1 | –
8 | Cc1ccc2c(n1)C(=O)C(Oc1ccc(F)c(Cl)c1)=CC2=O [Compound 10, 7-(3-Chloro-4-fluorophenoxy)-2-methylquinoline-5,8-dione] | 0 | -1.9 | -4.7 | 0.3 | 0 | -7.2 | -7.7 | -6.5 | –
9 | Cc1ccc2c(n1)C(=O)C(Oc1ccc(CCO)cc1)=CC2=O [Compound 11, 7-(4-(2-Hydroxyethyl)phenoxy)-2-methylquinoline-5,8-dione] | – | 33.1 | 31.4 | 34.5 | – | 19 | 17.6 | 20.1 | –
10 | Cc1ccc2c(n1)C(=O)C(Oc1ccc(Br)cc1)=CC2=O [Compound 12, 7-(4-Bromophenoxy)-2-methylquinoline-5,8-dione] | – | – | – | – | – | – | – | – | Mean Growth (%) (NCI-60 cell line panel): 90.5%
11 | COc1ccc(OC2=CC(=O)c3ccc(C=O)nc3C2=O)cc1 [Compound 13, 7-(4-Methoxyphenoxy)-5,8-dioxo-5,8-dihydroquinoline-2-carbaldehyde] | – | 39.7 | 38.1 | 41.1 | – | 14.6 | 4.3 | 22.6 | –
12 | COc1cccc(OC2=CC(=O)c3ccc(C=O)nc3C2=O)c1 [Compound 14, 7-(3-Methoxyphenoxy)-5,8-dioxo-5,8-dihydroquinoline-2-carbaldehyde] | – | 0.4 | -1.7 | 2 | – | -6.7 | -8.6 | -4.9 | –
13 | O=Cc1ccc2c(n1)C(=O)C(Oc1ccc(F)cc1)=CC2=O [Compound 15, 7-(4-Fluorophenoxy)-5,8-dioxo-5,8-dihydroquinoline-2-carbaldehyde] | – | 22.1 | 18.1 | 25.3 | – | 11.1 | 6.2 | 15.2 | –
14 | O=Cc1ccc2c(n1)C(=O)C(Oc1ccc(F)c(F)c1)=CC2=O [Compound 18, 7-(3,4-Difluorophenoxy)-5,8-dioxo-5,8-dihydroquinoline-2-carbaldehyde] | – | -16.4 | -19.8 | -13.7 | – | -22.7 | -26.7 | -19.2 | –
15 | O=Cc1ccc2c(n1)C(=O)C(Oc1ccc(Br)cc1)=CC2=O [Compound 19, 7-(4-Bromophenoxy)-5,8-dioxo-5,8-dihydroquinoline-2-carbaldehyde] | – | 3.2 | 6.8 | 0.3 | – | -0.9 | -4.1 | 1.8 | –
16 | COc1ccc(OC2=CC(=O)c3ccc(CN4CCC[C@@H]4CO)nc3C2=O)cc1 [Compound 20, (R)-2-((2-(Hydroxymethyl)pyrrolidin-1-yl)methyl)-7-(4-methoxyphenoxy)quinoline-5,8-dione] | 82 | 81.6 | 81.2 | 81.9 | 63 | 63.1 | 61.7 | 64.3 | IC50 (recombinant human SphK2): 13.2 µM and 13 µM; IC50 (recombinant human SphK1): 42.3 µM and 42 µM
17 | O=C1C=C(Oc2ccc(F)cc2)C(=O)c2nc(CN3CCC[C@@H]3CO)ccc21 [Compound 21, (R)-7-(4-Fluorophenoxy)-2-((2-(hydroxymethyl)pyrrolidin-1-yl)methyl)quinoline-5,8-dione] | 43 | 43.2 | – | 43.4 | 70 | 69.7 | 62 | 75.8 | –
18 | Cc1cc(CS(=O)(=O)c2ccccc2)cc(OCc2ccc(CN3CCC[C@@H]3CO)cc2)c1 [PF-543] | – | – | – | – | – | – | – | – | inhibition at 0.1 µM (recombinant human SphK2; read-out: Spk2 % Inhibition): 0.7%; Necrotic SCC cells induced by PF-543 ([2]; with addition of ROS scavenger N-acetyl-L-cysteine): 26.3%; Necrotic SCC cells induced by PF-543 ([2]; without ROS scavenger): 48.6%
19 | O=C(NCc1ccncc1)C12CC3CC(C1)CC(c1ccc(Cl)cc1)(C3)C2 [opaganib, reference compound] | 36 | – | – | – | – | – | – | – | inhibition at 10 µM (recombinant human SphK2; read-out: Spk2 % Inhibition, 10uM, Table S2 assay validation): 35.5%; Ki (SphK2; ref 20-24 (b6), 19, 22): 9.8 µM; inhibition at 10 µM (recombinant human SphK1; read-out: Spk1 % Inhibition, 10uM, Table S2 assay validation): -8.6%; Selectivity between SphK1 and SphK2 (in words) (recombinant human SphK1): high SphK2 selectivity; GI50 (60 cell lines (NCI)): 11.5 µM
